Results published in US8609672B2, “Piperazinylpyrimidine analogues as protein kinase inhibitors” (University of the Pacific, priority 2010, dated 2013).

Target: KIT (Homo sapiens, UniProt P10721)
Settings: KIT wild-type; reference kinase inhibitors, from literature; cited from earlier work

KIT, sequence (P10721 26-976): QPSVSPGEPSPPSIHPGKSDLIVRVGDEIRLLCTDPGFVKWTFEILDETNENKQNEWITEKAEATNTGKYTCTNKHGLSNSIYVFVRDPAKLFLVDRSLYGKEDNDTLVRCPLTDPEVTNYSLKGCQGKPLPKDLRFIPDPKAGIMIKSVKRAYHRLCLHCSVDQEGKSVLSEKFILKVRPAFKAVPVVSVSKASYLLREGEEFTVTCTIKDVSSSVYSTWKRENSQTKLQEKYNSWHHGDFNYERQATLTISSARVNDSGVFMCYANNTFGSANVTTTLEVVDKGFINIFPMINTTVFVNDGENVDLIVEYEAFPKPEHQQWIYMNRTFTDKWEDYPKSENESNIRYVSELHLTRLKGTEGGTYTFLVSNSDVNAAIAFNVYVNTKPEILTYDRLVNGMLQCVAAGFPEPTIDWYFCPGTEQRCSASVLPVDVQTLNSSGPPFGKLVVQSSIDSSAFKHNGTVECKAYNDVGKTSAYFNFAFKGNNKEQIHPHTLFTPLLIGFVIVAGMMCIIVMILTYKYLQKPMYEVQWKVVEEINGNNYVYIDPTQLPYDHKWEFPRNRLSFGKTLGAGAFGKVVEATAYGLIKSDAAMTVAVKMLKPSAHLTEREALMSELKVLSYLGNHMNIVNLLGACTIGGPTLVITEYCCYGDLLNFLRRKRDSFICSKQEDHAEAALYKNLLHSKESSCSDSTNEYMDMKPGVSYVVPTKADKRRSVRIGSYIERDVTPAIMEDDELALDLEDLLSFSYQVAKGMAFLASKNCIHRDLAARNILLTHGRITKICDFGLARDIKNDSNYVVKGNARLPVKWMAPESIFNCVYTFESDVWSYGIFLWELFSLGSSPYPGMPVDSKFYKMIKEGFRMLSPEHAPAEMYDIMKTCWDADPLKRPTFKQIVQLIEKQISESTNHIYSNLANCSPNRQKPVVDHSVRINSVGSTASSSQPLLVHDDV

Structure (SMILES) | Kd
COCC(=O)NC/C=C/c1ccc2ncnc(Nc3ccc(Oc4ccc(C)nc4)c(C)c3)c2c1 [CP-724714] | > 10000 nM
CCOc1cc2ncc(C#N)c(Nc3ccc(F)c(Cl)c3)c2cc1NC(=O)/C=C/CN(C)C [EKB-569] | > 10000 nM
Oc1ccc(-c2nc(-c3ccc(F)cc3)c(-c3ccncc3)[nH]2)cc1 [SB-202190] | > 10000 nM

Same assay, conditions: cited from earlier work

Structure (SMILES) | Kd
NC(=O)c1ccc(-c2nc(-c3ccccn3)c(-c3ccc4c(c3)OCO4)[nH]2)cc1 [SB-431542] | > 10000 nM

System: not given
Settings: not given

melting point | Structure (SMILES)
135 to 137 °C | c1ccc(Cc2cnc(N3CCN(c4nc(-c5ccccc5)nc5ccccc45)CC3)nc2)cc1 [Compound 6, 4-(4-(5-benzylpyrimidin-2-yl)piperazin-1-yl)-2-phenylquinazoline]
146 to 147 °C | CCc1cnc(N2CCN(C(=O)c3cccc(Nc4ncnc5ccccc45)c3)CC2)nc1 [Compound 13, (4-(5-ethylpyrimidin-2-yl)piperazin-1-yl)(3-(quinazolin-4-ylamino)phenyl)methanone]
245 to 247 °C | O=C(c1ccc(Nc2ncnc3ccccc23)cc1)N1CCN(c2ncc(Cc3ccccc3)cn2)CC1 [Compound 17, (4-(5-benzylpyrimidin-2-yl)piperazin-1-yl)(4-(quinazolin-4-ylamino)phenyl)methanone]
99 to 101 °C | O=C(c1ccc(CNc2ncnc3ccccc23)cc1)N1CCN(c2ncc(Cc3ccccc3)cn2)CC1 [Compound 18, (4-(5-benzylpyrimidin-2-yl)piperazin-1-yl)(4-((quinazolin-4-ylamino)methyl)phenyl)methanone]
207 to 208 °C | CCc1cnc(N2CCN(C(=O)c3ccc(CNc4nc(-c5ccccc5)nc5ccccc45)cc3)CC2)nc1 [Compound 21, (4-(5-ethylpyrimidin-2-yl)piperazin-1-yl)(4-((2-phenylquinazolin-4ylamino)methyl)phenyl)methanone]
214 to 215 °C | O=C(c1cccc(Nc2nc(-c3ccccc3)nc3ccccc23)c1)N1CCN(c2ncc(Cc3ccccc3)cn2)CC1 [Compound 22, (4-(5-benzylpyrimidin-2-yl)piperazin-1-yl)(3-(2-phenylquinazolin-4ylamino)phenyl)methanone]
> 250 °C | O=C(c1ccc(Nc2nc(-c3ccccc3)nc3ccccc23)cc1)N1CCN(c2ncc(Cc3ccccc3)cn2)CC1 [Compound 23, (4-(5-benzylpyrimidin-2-yl)piperazin-1-yl)(4-(2-phenylquinazolin-4ylamino)phenyl)methanone]
216 to 217 °C | O=C(c1ccc(CNc2nc(-c3ccccc3)nc3ccccc23)cc1)N1CCN(c2ncc(Cc3ccccc3)cn2)CC1 [Compound 24, (4-(5-benzylpyrimidin-2-yl)piperazin-1-yl)(4-((2-phenylquinazolin-4-ylamino)methyl)phenyl)methanone]

Second part, the molecule before the results:

Structure (SMILES) | melting point
CCc1cnc(N2CCN(c3ncnc4ccccc34)CC2)nc1 [Compound 3, 4-(4-(5-ethylpyrimidin-2-yl)piperazin-1-yl)quinazoline] | > 250 °C
CCc1cnc(N2CCN(c3nc(-c4ccccc4)nc4ccccc34)CC2)nc1 [Compound 5, 4-(4-(5-ethylpyrimidin-2-yl)piperazin-1-yl)-2-phenylquinazoline] | 137 to 138 °C
CCc1cnc(N2CCN(C(=O)c3ccc(Nc4ncnc5ccccc45)cc3)CC2)nc1 [Compound 14, (4-(5-ethylpyrimidin-2-yl)piperazin-1-yl)(4-(quinazolin-4-ylamino)phenyl)methanone] | 248 to 249 °C
CCc1cnc(N2CCN(C(=O)c3ccccc3NC3=c4ccccc4=NCN3c3ccccc3)CC2)nc1 [Compound 19, (4-(5-ethylpyrimidin-2-yl)piperazin-1-yl)(2-(3-phenylquinazolin-4-ylamino)phenyl)methanone] | 204 to 205 °C
CCc1cnc(N2CCN(C(=O)c3ccccc3NC3(c4ccccc4)NC=Nc4ccccc43)CC2)nc1 (centres unmarked) [Compound 20, (4-(5-ethylpyrimidin-2-yl)piperazin-1-yl)(2-(4-phenylquinazolin-4-ylamino)phenyl)methanone] | > 250 °C
